Reference: patent publication EP3436445B1, “HISTONE DEMETHYLASE INHIBITORS” (Celgene Quanticel Research, Inc., priority 2016, dated 2017)

Columns and labels:
Jarid1B = target: T1, Jarid1B (Homo sapiens, UniProt Q9UGL1); test: Jarid1B in vitro enzyme inhibition assay (TR-FRET); format: biochemical; details: Table 5; 0.8 nM Jarid1B, H3K4me3-biotin labeled peptide; read-out: JARID1B IC5
T1 construct: purchased BPS Bioscience (or custom made by MolecularThroughput) 50121
T1 sequence (Q9UGL1 2-751): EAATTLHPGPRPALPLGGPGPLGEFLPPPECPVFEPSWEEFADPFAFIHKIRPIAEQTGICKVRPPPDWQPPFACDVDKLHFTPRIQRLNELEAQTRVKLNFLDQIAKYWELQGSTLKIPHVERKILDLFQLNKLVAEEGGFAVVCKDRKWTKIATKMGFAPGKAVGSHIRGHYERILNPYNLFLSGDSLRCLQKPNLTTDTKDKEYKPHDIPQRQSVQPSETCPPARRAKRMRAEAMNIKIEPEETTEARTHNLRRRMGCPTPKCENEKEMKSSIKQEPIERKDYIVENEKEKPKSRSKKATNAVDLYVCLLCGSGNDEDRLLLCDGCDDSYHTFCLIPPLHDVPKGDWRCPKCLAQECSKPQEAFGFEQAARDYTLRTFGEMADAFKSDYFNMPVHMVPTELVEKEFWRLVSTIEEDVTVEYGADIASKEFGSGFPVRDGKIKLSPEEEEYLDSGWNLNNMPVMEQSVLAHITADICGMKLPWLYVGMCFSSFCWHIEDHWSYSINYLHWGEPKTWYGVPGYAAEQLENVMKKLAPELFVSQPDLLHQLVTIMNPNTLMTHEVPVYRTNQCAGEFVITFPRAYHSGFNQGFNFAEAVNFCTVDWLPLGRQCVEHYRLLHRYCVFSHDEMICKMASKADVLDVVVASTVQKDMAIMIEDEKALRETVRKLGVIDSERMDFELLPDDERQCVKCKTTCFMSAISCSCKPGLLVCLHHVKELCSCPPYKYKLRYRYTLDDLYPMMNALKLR
Source text: (§1) This assay determines the ability of a test compound to inhibit Jarid1B, JMJD2C and JMJD3 demethylase activity. Baculovirus expressed Jarid1B (GenBank Accession #NM-006618, AA 2-751) was purchased from BPS Bioscience (Cat #50121) or custom made by MolecularThroughput. Baculovirus expressed JMJD2C (GenBank Accession #BC143571, AA 2-372) was purchased from BPS Bioscience (Cat#50105). Baculovirus expressed JMJD3 (GenBank Accession #NM-001080424, AA1043-end) was purchased from BPS Bioscience (Cat#50115).
The ability of test compounds to inhibit the activity of Jarid1B was determined in 384-well plate format under the following reaction conditions: 0.8 nM Jarid1B, 300 nM H3K4me3-biotin labeled peptide (Anaspec cat #64357), 2 µM alpha-ketoglutaric acid in assay buffer of 50 mM HEPES, pH7.3, 0.005% Brij35, 0.5 mM TCEP, 0.2 mg/ml BSA, 50 µM sodium L-ascorbate, and 2 µM ammonium iron(II) sulfate. Reaction product was determined quantitatively by TR-FRET after the addition of detection reagent Phycolink Streptavidin-allophycocyanin (Prozyme) and Europium-anti-mono-or di-methylated histone H3 lysine 4 (H3K4me1-2) antibody (PerkinElmer) in the presence of 5 mM EDTA in LANCE detection buffer (PerkinElmer) at a final concentration of 25 nM and 1 nM, respectively.
(§2) The assay reaction was initiated by the following: 2 µl of the mixture of 900 nM H3K4me3-biotin labeled peptide and 6 µM alpha-ketoglutaric acid with 2 µl of 11-point serial diluted inhibitor in 3% DMSO was added to each well of the plate, followed by the addition of 2 µl of 2.4 nM Jarid1B to initiate the reaction. The reaction mixture was incubated at room temperature for 30 minutes, and terminated by the addition of 6 µl of 5 mM EDTA in LANCE detection buffer containing 50 nM Phycolink Streptavidin-allophycocyanin and 2 nM Europium-anti-H3K4me1-2 antibody. Plates were read by EnVisionMultilabel Reader in TR-FRET mode (excitation at 320 nm, emission at 615 nm and 665 nm) after 1 hour incubation at room temperature. A ratio was calculated (665/615) for each well and fitted to determine inhibition constant (IC50).

JMJD2C = target: T2, JMJD2C (Homo sapiens, UniProt Q9H3R0); test: JMJD2C in vitro enzyme inhibition assay (TR-FRET); format: biochemical; details: Table 5; 0.3 nM JMJD2C, H3K9me3-biotin labeled peptide
T2 construct: purchased BPS Bioscience 50105
T2 sequence (Q9H3R0 2-372): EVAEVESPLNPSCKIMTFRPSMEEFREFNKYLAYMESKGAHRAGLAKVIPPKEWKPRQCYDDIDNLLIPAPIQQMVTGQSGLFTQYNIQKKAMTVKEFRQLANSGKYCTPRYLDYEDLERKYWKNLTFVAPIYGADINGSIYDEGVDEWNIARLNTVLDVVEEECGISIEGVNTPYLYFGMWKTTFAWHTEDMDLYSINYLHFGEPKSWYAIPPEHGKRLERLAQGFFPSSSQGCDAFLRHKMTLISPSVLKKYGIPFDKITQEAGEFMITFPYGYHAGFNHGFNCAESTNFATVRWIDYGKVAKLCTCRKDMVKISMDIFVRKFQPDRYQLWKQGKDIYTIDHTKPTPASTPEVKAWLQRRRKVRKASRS
Source text: as §1
The ability of test compounds to inhibit the activity of JMJD2C was determined in 384-well plate format under the following reaction conditions: 0.3 nM JMJD2C, 300 nM H3K9me3-biotin labeled peptide (Anaspec cat #64360), 2 µM alpha-ketoglutaric acid in assay buffer of 50 mM HEPES, pH7.3, 0.005% Brij35, 0.5 mM TCEP, 0.2 mg/ml BSA, 50 µM sodium L-ascorbate, and 2 µM ammonium iron(II) sulfate. Reaction product was determined quantitatively by TR-FRET after the addition of detection reagent Phycolink Streptavidin-allophycocyanin (Prozyme) and Europium-anti-di-methylated histone H3 lysine 9 (H3K9me2) antibody (PerkinElmer) in the presence of 5 mM EDTA in LANCE detection buffer (PerkinElmer) at a final concentration of 50 nM and 1 nM, respectively.
as §2, with “nM H3K9me3-biotin” for “nM H3K4me3-biotin”, “DMSO were” for “DMSO was”, “of 0.9” for “of 2.4”, “nM JMJD2C” for “nM Jarid1B”, “containing 100” for “containing 50”, “nM Europium-anti-H3K9me2” for “nM Europium-anti-H3K4me1-2”

Compound	IC50 (Jarid1B)	IC50 (JMJD2C)
FC(F)(F)c1[nH]nnc1-c1ccnc(-c2cn(CC3CCOc4ccccc43)cn2)c1 (stereo not drawn) [Example 98, 2-{1-[(3,4-dihydro-2H-1-benzopyran-4-yl)methyl]-1H-imidazol-4-yl}-4-[5-(trifluoromethyl)-1H-1,2,3-triazol-4-yl]pyridine]	≤ 100 nM	> 10000 nM
Fc1ccccc1Cn1cnc(-c2cc(-c3nn[nH]c3C(F)(F)F)ccn2)c1 [Example 62, 2-{1-[(2-fluoroprtenyl)methyl]-1H-imidazol-4-yl}-4-[5-(trifluoromethyl)-1H-1,2,3-triazol-4-yl]pyridine]	100 to 1000 nM	> 10000 nM
Fc1ccc2c(c1)C(n1cnc(-c3cc(-c4nn[nH]c4C(F)(F)F)ccn3)c1)CC2 (stereo not drawn) [Example 85, 2-[1-(6-fluoro-2,3-dihydro-1H-inden-1-yl)-1H-imidazol-4-yl]-4-[5-(trifluoromethyl)-1H-1,2,3-triazol-4-yl]pyridine]	≤ 100 nM	1000 to 10000 nM
Fc1ccc2c(c1)C(Cn1cnc(-c3cc(-c4nn[nH]c4C(F)(F)F)ccn3)c1)CCC2 (stereo not drawn) [Example 101, 2-{1-[(7-fluoro-1,2,3,4-tetrahydronaphthalen-1-yl)methyl]-1H-imidazol-4-yl}-4-[5-(trifluoromethyl)-1H-1,2,3-triazol-4-yl]pyridine]	≤ 100 nM	> 10000 nM
COc1cccc2c1C(Cn1cnc(-c3cc(-c4nn[nH]c4C(F)(F)F)ccn3)c1)CCC2 (stereo not drawn) [Example 107, 2-{1-[(8-methoxy-1,2,3,4-tetrahydronaphthalen-1-yl)methyl]-1H-imidazol-4-yl}-4-[5-(trifluoromethyl)-1H-1,2,3-triazol-4-yl]pyridine]	100 to 1000 nM	> 10000 nM
Fc1cc(F)c(CCn2cnc(-c3cc(-c4nn[nH]c4C(F)(F)F)ccn3)c2)cc1F [Example 81, 4-[5-(trifluoromethyl)-1H-1,2,3-triazol-4-yl]-2-{1-[2-(2,4,5-trifluorophenyl)ethyl]-1H-imidazol-4-yl}pyridine]	≤ 100 nM	> 10000 nM
COc1cccc2c1CCCC2Cn1cnc(-c2cc(-c3nn[nH]c3C(F)(F)F)ccn2)c1 (stereo not drawn) [Example 104, 2-{1-[(5-methoxy-1,2,3,4-tetrahydronaphthalen-1-yl)methyl]-1H-imidazol-4-yl}-4-[5-(trifluoromethyl)-1H-1,2,3-triazol-4-yl]pyridine]	100 to 1000 nM	> 10000 nM

Further lines, results first:

IC50 (Jarid1B)	IC50 (JMJD2C)	Compound
≤ 100 nM	> 10000 nM	Fc1cccc(CCn2cnc(-c3cc(-c4nn[nH]c4C(F)(F)F)ccn3)c2)c1F [Example 79, 2-{1-[2-(2,3-difluorophenyl)ethyl]-1H-imidazol-4-yl}-4-[5-(trifluoromethyl)-1H-1,2,3-triazol-4-yl]pyridine]
≤ 100 nM	> 10000 nM	Fc1ccc(CCn2cnc(-c3cc(-c4nn[nH]c4C(F)(F)F)ccn3)c2)c(F)c1 [Example 86, 2-{1-[2-(2,4-difluorophenyl)ethyl]-1H-imidazol-4-yl}-4-[5-(trifluoromethyl)-1H-1,2,3-triazol-4-yl]pyridine]
100 to 1000 nM	> 10000 nM	Fc1cccc(Cl)c1CCn1cnc(-c2cc(-c3nn[nH]c3C(F)(F)F)ccn2)c1 [Example 80, 2-{1-[2-(2-chloro-6-fluorophenyl)ethyl]-1H-imidazol-4-yl}-4-[5-(trifluoromethyl)-1H-1,2,3-triazol-4-yl]pyridine]
100 to 1000 nM	> 10000 nM	Fc1cccc(F)c1Cn1cnc(-c2cc(-c3nn[nH]c3C(F)(F)F)ccn2)c1 [Example 69, 2-{1-[(2,6-difluorophenyl)methyl]-1H-imidazol-4-yl}-4-[5-(trifluoromethyl)-1H-1,2,3-triazol-4-yl]pyridine]
100 to 1000 nM	> 10000 nM	Fc1cccc(F)c1CCn1cnc(-c2cc(-c3nn[nH]c3C(F)(F)F)ccn2)c1 [Example 87, 2-{1-[2-(2,6-difluorophenyl)ethyl]-1H-imidazol-4-yl}-4-[5-(trifluoromethyl)-1H-1,2,3-triazol-4-yl]pyridine]
